Test results as given in PMC4646457 (PLoS ONE, 2015).
≈ marks a conversion by molar mass, not a printed value. Where two headings read alike, the source gives them in different places.

Tests used:
[1] = system: isolated canine cardiac Purkinje fibers; parameters: method as in EGF10027 protocol, CIB RM2000/00481/06; conditions: ref EGF10027 protocol, CIB RM2000/00481/06; cited from earlier work
[2] = system: HER2; conditions: read-out: IC50 for HER2; stated as target binding affinity, ref not given; cited from earlier work
[3] = mice; ref EGF10027 protocol, CIB RM2000/00481/06; cited from earlier work
[4] = parameters: method as in EGF10027 protocol, CIB RM2000/00481/06; conditions: ref EGF10027 protocol, CIB RM2000/00481/06, cited from earlier work
[5] = system: CYP3A; parameters: method as in EGF10027 protocol, CIB RM2000/00481/06; conditions: pregnane X receptor-screening assay; ref EGF10027 protocol, CIB RM2000/00481/06; cited from earlier work
[6] = system: plasma albumin; parameters: method as in printed; conditions: ref not given; cited from earlier work
[7] = parameters: method as in RM2005/00018/00 (Study EGF20008); conditions: single agent, heavily pre-treated population; ref RM2005/00018/00 (Study EGF20008); cited from earlier work
[8] = molecular target: ErbB2 tyrosine kinase; conditions: read-out: IC50, ErbB2 tyrosine kinase; in vitro kinase assay; ref EGF10027 protocol, CIB RM2000/00481/06; cited from earlier work
[9] = molecular target: HER2 (Homo sapiens, UniProt P04626); test: Quantitative IHC of phosphorylated HER2 in patient tumor (EGF10027); type: in vivo; conditions: for p-HER2 post-treatment OD: plasma […]
Sequence of HER2 (Homo sapiens, UniProt P04626) (P04626 23-1255): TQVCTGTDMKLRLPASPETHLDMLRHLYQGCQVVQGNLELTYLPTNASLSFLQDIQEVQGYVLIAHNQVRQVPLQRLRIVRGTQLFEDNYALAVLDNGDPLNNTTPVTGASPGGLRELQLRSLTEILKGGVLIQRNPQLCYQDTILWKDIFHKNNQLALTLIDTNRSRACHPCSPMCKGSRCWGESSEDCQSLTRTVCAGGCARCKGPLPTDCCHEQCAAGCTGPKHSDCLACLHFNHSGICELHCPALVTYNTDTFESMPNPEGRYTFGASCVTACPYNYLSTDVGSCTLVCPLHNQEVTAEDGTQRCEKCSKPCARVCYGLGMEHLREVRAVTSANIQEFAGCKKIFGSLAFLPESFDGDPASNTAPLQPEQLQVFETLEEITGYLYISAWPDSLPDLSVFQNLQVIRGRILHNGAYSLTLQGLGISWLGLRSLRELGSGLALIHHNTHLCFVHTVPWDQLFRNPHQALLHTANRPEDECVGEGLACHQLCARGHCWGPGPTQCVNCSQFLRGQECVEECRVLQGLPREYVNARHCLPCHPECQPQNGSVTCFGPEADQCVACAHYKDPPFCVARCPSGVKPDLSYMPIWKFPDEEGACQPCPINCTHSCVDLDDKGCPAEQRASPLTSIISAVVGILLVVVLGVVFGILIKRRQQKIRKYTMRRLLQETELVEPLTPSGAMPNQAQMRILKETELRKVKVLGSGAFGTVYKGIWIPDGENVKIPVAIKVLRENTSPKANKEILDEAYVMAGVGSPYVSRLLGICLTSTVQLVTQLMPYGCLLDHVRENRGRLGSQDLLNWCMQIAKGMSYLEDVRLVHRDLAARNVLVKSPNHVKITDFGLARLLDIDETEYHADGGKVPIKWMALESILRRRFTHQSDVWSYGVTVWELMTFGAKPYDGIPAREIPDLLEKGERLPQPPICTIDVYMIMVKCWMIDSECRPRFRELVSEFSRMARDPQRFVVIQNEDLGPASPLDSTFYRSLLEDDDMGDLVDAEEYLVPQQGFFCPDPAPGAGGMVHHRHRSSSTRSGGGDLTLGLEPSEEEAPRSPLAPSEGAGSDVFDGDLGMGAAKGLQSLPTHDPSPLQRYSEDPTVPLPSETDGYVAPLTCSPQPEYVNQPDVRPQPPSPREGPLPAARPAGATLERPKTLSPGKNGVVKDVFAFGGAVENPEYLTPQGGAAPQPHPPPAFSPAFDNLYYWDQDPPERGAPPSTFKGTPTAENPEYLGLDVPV

[10] = system: efflux transporter ABCB1; conditions: read-out: IC50 for inhibition of the efflux transporter ABCB1; cited from earlier work
[11] = system: HER2+ human breast cancer cell lines; parameters: method as in PMID 12467226; conditions: in vitro proliferative growth, cited from earlier work
[12] = parameters: method as in study EGF10003; conditions: ref study EGF10003, cited from earlier work
[13] = parameters: method as in EGF10027 protocol, CIB RM2000/00481/06; conditions: mice, rats and dogs; ref EGF10027 protocol, CIB RM2000/00481/06; cited from earlier work
[14] = rats; ref EGF10027 protocol, CIB RM2000/00481/06; cited from earlier work
[15] = parameters: method as in EGF10027 protocol, CIB RM2000/00481/06; conditions: Ames, CHO and human lymphocyte chromosome aberration, in vivo rat bone marrow; ref EGF10027 protocol, CIB RM2000/00481/06; cited from earlier work
[16] = cancer patients, once daily dosing up to 1800 mg, preliminary

Which “concentration not altering action potential parameters” value [1] does the source give for `CS(=O)(=O)CCNCc1ccc(-c2ccc3ncnc(Nc4ccc(OCc5cccc(F)c5)c(Cl)c4)c3c2)o1` [lapatinib] here?
The value was “up to 2560 ng/mL”.

And the IC50 [2]?
Its IC50 is 25 nM.

And the “single intravenous dose with no deaths” value [3]?
The value was “up to 46 mg/kg”.

And the “single oral dose with no deaths” value [3]?
Its value is “up to 2,000 mg/kg”.

And the “dose recovered in bile” value ([4]; bile duct cannulated male rats, within 5 hours after dosing)?
Its value is 32%.

And the “overall recovery of radioactivity (nearly quantitative in feces)” value ([4]; oral, male Wistar Han rats)?
Its value is 90.0%.

What about the CYP3A induction [5] of the same molecule?
The CYP3A induction was “no abil it y to induce CYP3A”.

And the “binding to plasma albumin” value [6]?
Its value is greater than 99%.

What about the “clinical benefit response rate” value [7] of the same molecule?
Its value is 6%.

What about the IC50 [8] of the same molecule?
Its IC50 is 9 nM.

What about the “p-HER2 post-treatment OD, mean” value ([9]; mean of listed subjects) of the same molecule?
Its value is 9.00 OD.

What about the “HER2 phosphorylation in tumor” value ([9]; one patient with ABCB1 SNP C3435T, plasma 1 μM, tumor 9 μM) of the same molecule?
The value was “complete inhibition”.

And the “p-HER2 post-treatment OD” value ([9]; subject 5, tumor 25.60 µM)?
Its value is 10 OD.

And the “p-HER2 post-treatment OD” value ([9]; subject 1405, tumor 12.76 µM)?
Its value is 17 OD.

And the IC50 [10]?
Its IC50 is 4000 nM.

What about the “IC90 in multiple HER2+ human breast cancer cell lines” value [11] of the same molecule?
Its value is roughly 0.5 µg/mL (≈ 0.86 µM).

What about the IC90 ([11]; read-out: IC90 in multiple HER2+ human breast cancer cell lines) of the same molecule?
Its IC90 is roughly 900 nM.

What about the “subjects with dose-limiting toxicity (diarrhea)” value ([12]; 900 mg BID) of the same molecule?
The value was 2 of 6.

And the incidence of diarrhea [12, 16]?
Its incidence of diarrhea is 18-25%.

What about the incidence of nausea [12, 16] of the same molecule?
Its incidence of nausea is less than 10%.

What about the incidence of rash [12, 16] of the same molecule?
The incidence of rash was less than 10%.

And the “incidence of gastrointestinal intolerance (nausea, vomiting and diarrhea)” value ([12]; patients receiving twice daily dosing (900 or 750 mg))?
Its value is roughly 34%.

And the “AUC with 900 mg BID compared with 1800 mg once daily, higher” value ([12]; patients)?
The value was “~ two-fol d”.

And the “urinary excretion of the oral dose” value [13]?
The value was less than 1%.

What about the “single intravenous dose with no deaths” value [14] of the same molecule?
The value was no more than 21 mg/kg.

What about the “single oral dose with no deaths” value [14] of the same molecule?
Its value is “up to 2,000 mg/kg”.

What about the mutagenicity and clastogenicity [15] of the same molecule?
The mutagenicity and clastogenicity was “non-mutagenic”.
